Structures can show the parent of a compound that is named as a salt.
What was measured:
[1] = biological target: T1, ETA receptor (Sus scrofa, UniProt Q29010); assay: Endothelin binding inhibition experiment, 125I-endothelin-1 binding assay, ETA receptor membrane samples from smooth muscles of porcine thoracic aorta; details: 125I-endothelin-1 2×10^−11 M, porcine thoracic aorta membranes, 2 hours at 25° C.
T1 construct: Porcine thoracic aorta which was separated from the fatty tissue and then was removed endothelium with gauze was minced, and then homogenized; from tissue; host or cells: porcine thoracic aorta smooth muscle membranes
T1 sequence (Q29010 21-427): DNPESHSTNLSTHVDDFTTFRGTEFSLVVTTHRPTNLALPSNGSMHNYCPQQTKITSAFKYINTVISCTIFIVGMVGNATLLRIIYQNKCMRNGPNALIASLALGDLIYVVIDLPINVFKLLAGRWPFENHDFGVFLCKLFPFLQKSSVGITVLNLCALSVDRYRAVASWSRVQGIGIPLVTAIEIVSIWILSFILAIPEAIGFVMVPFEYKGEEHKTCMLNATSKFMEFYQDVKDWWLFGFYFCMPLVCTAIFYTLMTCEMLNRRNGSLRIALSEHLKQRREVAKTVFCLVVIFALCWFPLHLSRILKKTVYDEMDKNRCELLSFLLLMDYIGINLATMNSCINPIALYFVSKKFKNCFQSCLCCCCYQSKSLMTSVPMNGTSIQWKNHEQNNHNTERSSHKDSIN
Procedure: (§1) Endothelin Binding Inhibition Experiment
Preparation of receptor membrane samples (ETA) from smooth muscles of porcine thoracic aorta:
Porcine thoracic aorta which was separated from the fatty tissue and then was removed endothelium with gauze was minced, and then homogenized in three times the volume of Tris-HCl buffer (pH 7.4) (buffer A) containing 0.25 M sucrose, 3 mM ethylenediaminetetraacetic acid, 5 μg/ml of aprotinin, 10 μg/ml of pepstatin A, 10 μg/ml of leupeptin, and 0.1 μM p-amidinophenyl-methanesulfonyl fluoride. After centrifugation for 30 minutes at 1,000×g, the supernatant was further centrifuged for 30 minutes at 100,000×g. The pellets were suspended in buffer A, and recentrifuged for 30 minutes at 100,000×g. The pellets were suspended in buffer A and the suspension was stored at −80° C.
^125I-Endothelin-1 Binding Assay
The thus-obtained membrane sample (1 μl) was incubated together with ^125I-endothelin-1 (2×10^−11 M) and various concentrations of the compounds, for 2 hours at 25° C., in 250 μl in total volume of 50 mM Tris-HCl buffer (pH 7.4) containing 0.5% bovine serum albumin. The incubated mixture was filtered by use of an HVPP filters (pore size 0.45 μm, product of Milipore). The filters were washed with cold buffer A four times, and then measured with a gamma-ray counter (Aroka Autowell Gamma System ARC-251). Preparation of receptor membrane sample (ETB) from rat brain and assay of ^125I endothelin-1: […]

[2] = biological target: T2, ETB receptor (Rattus norvegicus, UniProt P21451); assay: Endothelin binding inhibition experiment, 125I-endothelin-1 binding assay, ETB receptor membrane sample from rat brain; details: 125I-endothelin-1, rat brain membranes
T2 construct: Rat brain tissue was minced, and a crude receptor membrane sample was prepared; from tissue; host or cells: rat brain crude membranes
T2 sequence (P21451 27-442): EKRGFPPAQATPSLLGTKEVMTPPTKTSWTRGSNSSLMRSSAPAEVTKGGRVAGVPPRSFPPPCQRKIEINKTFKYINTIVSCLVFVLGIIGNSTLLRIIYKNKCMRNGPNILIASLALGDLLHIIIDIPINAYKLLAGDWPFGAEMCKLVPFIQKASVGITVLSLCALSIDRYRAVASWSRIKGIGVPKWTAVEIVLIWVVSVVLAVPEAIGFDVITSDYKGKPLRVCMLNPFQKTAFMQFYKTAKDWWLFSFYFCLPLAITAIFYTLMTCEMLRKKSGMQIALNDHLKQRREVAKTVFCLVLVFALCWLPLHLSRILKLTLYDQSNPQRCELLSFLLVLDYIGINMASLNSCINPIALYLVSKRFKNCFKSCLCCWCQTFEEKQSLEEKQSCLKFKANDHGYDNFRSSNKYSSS
Procedure: as §1
The thus-obtained membrane sample (1 μl) was incubated together with ^125I-endothelin-1 (2×10^−11 M) and various concentrations of the compounds, for 2 hours at 25° C., in 250 μl in total volume of 50 mM Tris-HCl buffer (pH 7.4) containing 0.5% bovine serum albumin. The incubated mixture was filtered by use of an HVPP filters (pore size 0.45 μm, product of Milipore). The filters were washed with cold buffer A four times, and then measured with a gamma-ray counter (Aroka Autowell Gamma System ARC-251). Preparation of receptor membrane sample (ETB) from rat brain and assay of ^125I endothelin-1:
Rat brain tissue was minced, and a crude receptor membrane sample was prepared in a manner similar to that used in the aforementioned case of porcine thoracic aorta. Also, ^125I-endothelin-1 assay was performed in the same manner as described above.

| Compound | melting point [°C] | IC50 [1] [µM] | IC50 [2] [µM] |
| --- | --- | --- | --- |
| COc1ccccc1Oc1c(NS(=O)(=O)c2ccc(C(C)(C)C)cc2)nc(-c2ncccn2)nc1OCCC(=O)Nc1ccccc1 (as salt: sodium) [Compound No. 18, N-phenyl-3-[6-(4-t-butylphenylsulfonylamino)-5-(2-methoxyphenoxy)-2-(2-pyrimidinyl)-4-pyrimidinyloxy]-propionamide] | 162 to 163 |  |  |
| COc1ccccc1CNC(=O)CCOc1nc(-c2ncccn2)nc(NS(=O)(=O)c2ccc(C(C)(C)C)cc2)c1Oc1ccccc1OC (as salt: sodium) [Compound No. 34, N-(2-methoxybenzyl)-3-[6-(4-t-butylphenylsulfonylamino)-5-(2-methoxyphenoxy)-2-(2-pyrimidinyl)-4-pyrimidinyloxy]propionamide] | 138 to 139 |  |  |
| CCCCCNC(=O)CCOc1nc(-c2ncccn2)nc(NS(=O)(=O)c2ccc(C(C)(C)C)cc2)c1Oc1ccccc1OC (as salt: sodium) [Compound No. 43, N-(n-pentyl)-3-[6-(4-t-butylphenylsulfonylamino)-5-(2-methoxyphenoxy)-2-(2-pyrimidinyl)-4-pyrimidinyloxy]-propionamide] | 142 to 144 |  |  |
| COc1ccccc1NC(=O)CCOc1nc(-c2ncccn2)nc(NS(=O)(=O)c2ccc(C(C)(C)C)cc2)c1Oc1ccccc1OC (as salt: sodium) [Compound No. 48, N-(2-methoxyphenyl)-3-[6-(4-t-butylphenylsulfonylamino)-5-(2-methoxyphenoxy)-2-(2-pyrimidinyl)-4-pyrimidinyloxy]propionamide] | 120 to 122 |  |  |
| CCNC(=O)CCOc1nc(-c2ncccn2)nc(NS(=O)(=O)c2ccc(C(C)(C)C)cc2)c1Oc1ccccc1OC (as salt: sodium) [Compound No. 49, N-ethyl-3-[6-(4-t-butylphenylsulfonylamino)-5-(2-methoxyphenoxy)-2-(2-pyrimidinyl)-4-pyrimidinyloxy]-propionamide] | 117 to 120 |  |  |
| COc1ccccc1Oc1c(NS(=O)(=O)c2ccc(C(C)(C)C)cc2)nc(-c2ncccn2)nc1OCC(=O)O [Compound No. 2, [6-(4-t-butylphenyl-sulfonylamino)-5-(2-methoxyphenoxy)-2-(2-pyrimidinyl)-4-pyrimidinyloxy]acetic acid] |  | 9.4 | 0.8 |
| CCOC(=O)CCOc1nc(-c2ncccn2)nc(NS(=O)(=O)c2ccc(C(C)(C)C)cc2)c1Oc1ccccc1OC [Compound No. 9, ethyl 3-[6-(4-t-butylphenylsulfonylamino)-5-(2-methoxyphenoxy)-2-(2-pyrimidinyl)-4-pyrimidinyloxy]propionate] |  | 0.72 | 2.9 |
| COc1ccccc1Oc1c(NS(=O)(=O)c2ccc(C(C)(C)C)cc2)nc(-c2ncccn2)nc1OCC(=O)OCc1ccccc1 [Compound No. 10, benzyl [6-(4-t-butylphenylsulfonylamino)-5-(2-methoxyphenoxy)-2-(2-pyrimidinyl)-4-pyrimidinyloxy]acetate] |  | 0.51 | 0.65 |
| COc1ccccc1Oc1c(NS(=O)(=O)c2ccc(C(C)(C)C)cc2)nc(-c2ncccn2)nc1OCC(=O)Oc1cccc(Cl)c1 [Compound No. 12, 3-chlorophenyl [6-(4-t-butylphenylsulfonylamino)-5-(2-methoxyphenoxy)-2-(2-pyrimidinyl)-4-pyrimidinyloxy]acetate] |  | 0.32 | 0.82 |
| COc1ccccc1Oc1c(NS(=O)(=O)c2ccc(C(C)(C)C)cc2)nc(-c2ncccn2)nc1OCCC(=O)NCc1ccccc1 [Compound No. 14, N-benzyl-3-[6-(4-t-butylphenylsulfonylamino)-5-(2-methoxyphenoxy)-2-(2-pyrimidinyl)-4-pyrimidinyloxy]-propionamide] |  | 0.82 | 0.0028 |
| COc1ccccc1Oc1c(NS(=O)(=O)c2ccc(C(C)(C)C)cc2)nc(-c2ncccn2)nc1OCC(=O)NCc1ccccc1 [Compound No. 15, N-benzyl-[6-(4-t-butylphenylsulfonylamino)-5-(2-methoxyphenoxy)-2-(2-pyrimidinyl)-4-pyrimidinyloxy]acetamide] |  | 3.2 | 0.016 |
| COc1ccccc1Oc1c(NS(=O)(=O)c2ccc(C(C)(C)C)cc2)nc(-c2ncccn2)nc1OCCC(=O)Nc1ccccc1 [Compound No. 18, N-phenyl-3-[6-(4-t-butylphenylsulfonylamino)-5-(2-methoxyphenoxy)-2-(2-pyrimidinyl)-4-pyrimidinyloxy]-propionamide] |  | 0.15 | 0.023 |
| COc1ccccc1Oc1c(NS(=O)(=O)c2ccc(C(C)(C)C)cc2)nc(-c2ncccn2)nc1OCCCC(=O)Nc1ccccc1 [Compound No. 25, N-phenyl-4-[6-(4-t-butylphenylsulfonylamino)-5-(2-methoxyphenoxy)-2-(2-pyrimidinyl)-4-pyrimidinyloxy]butyramide] |  | 1.9 | 0.037 |
| COc1ccccc1NC(=O)CCCOc1nc(-c2ncccn2)nc(NS(=O)(=O)c2ccc(C(C)(C)C)cc2)c1Oc1ccccc1OC [Compound No. 29, N-(2-methoxyphenyl)-4-[6-(4-t-butylphenylsulfonylamino)-5-(2-methoxyphenoxy)-2-(2-pyrimidinyl)-4-pyrimidinyloxy]-butyramide] |  | 3.1 | 0.03 |
| COc1ccccc1CNC(=O)CCOc1nc(-c2ncccn2)nc(NS(=O)(=O)c2ccc(C(C)(C)C)cc2)c1Oc1ccccc1OC [Compound No. 34, N-(2-methoxybenzyl)-3-[6-(4-t-butylphenylsulfonylamino)-5-(2-methoxyphenoxy)-2-(2-pyrimidinyl)-4-pyrimidinyloxy]propionamide] |  | 0.39 | 0.22 |
| COc1ccccc1NC(=O)CCOc1nc(-c2ncccn2)nc(NS(=O)(=O)c2ccc(C(C)(C)C)cc2)c1Oc1ccccc1OC [Compound No. 48, N-(2-methoxyphenyl)-3-[6-(4-t-butylphenylsulfonylamino)-5-(2-methoxyphenoxy)-2-(2-pyrimidinyl)-4-pyrimidinyloxy]propionamide] |  | 0.16 | 0.00075 |
| COc1ccccc1Oc1c(NS(=O)(=O)c2ccc(C(C)(C)C)cc2)nc(-c2ncccn2)nc1OCCC(=O)Nc1ccccc1C(C)C [Compound No. 53, N-(2-isopropylphenyl)-3-[6-(4-t-butylphenylsulfonylamino)-5-(2-methoxyphenoxy)-2-(2-pyrimidinyl)-4-pyrimidinyloxy]propionamide] |  | 0.098 | 0.00082 |
| COc1ccccc1Oc1c(NS(=O)(=O)c2ccc(C(C)(C)C)cc2)nc(-c2ncccn2)nc1OCCC(=O)Nc1ccccn1 [Compound No. 92, N-(2-pyridyl)-3-[6-(4-t-butylphenylsulfonylamino)-5-(2-methoxyphenoxy)-2-(2-pyrimidinyl)-4-pyrimidinyloxy]-propionamide] |  | 0.0095 | 0.1 |
| N-(2-chlorophenethyl)-4-[6-(4-t-butylphenylsulfonylamino)-5-(2-methoxyphenoxy)-2-(2-pyrimidinyl)-4-pyrimidinyloxy]-butylamide [Compound No. 38] |  | 16.9 | 0.019 |

Source: US6337334B1, “Pyrimidine derivatives” (Kowa Co., Ltd., priority 1994, dated 2002)
